The values below come from PubChem BioAssay (NCI).

Test systems include UO-31 renal; HCT-15 colon; 786-0 renal; SF-539 CNS; CCRF-CEM leukemia; SK-MEL-28 melanoma; SF-268 CNS; SR leukemia; PC-3 prostate.
Holding throughout (experiment): NCI tumour cell line growth inhibition, 48 h

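All cell lines were grown in 96-well plates and treated with compound for 48 hours. GI50 = concentration required for 50% inhibition of growth. TGI: total growth inhibition.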 Bounds are passed on as bounds.

Turning to `Cc1ccc(SCC(O)=C2C(=O)CCCC2=O)cc1`, the TGI in the assay on UO-31 renal, with HCT-15 colon, in the assay with 786-0 renal, with SF-539 CNS, in the assay with CCRF-CEM leukemia and in the assay on SK-MEL-28 melanoma was > 100 µM throughout. In addition, the TGI in the assay on SF-268 CNS and in the assay with SR leukemia was > 100 µM throughout.

Consider `C[C@H]1CCC/C=C/[C@@H]2C[C@H](O)C[C@H]2[C@H](O)[C@@H](SC2OC(CO)C(O)C(O)C2O)CC(=O)O1` (some centres undefined), for which the GI50 with UO-31 renal was 47.9 µM; in the assay with PC-3 prostate, > 100 µM; in the assay with HCT-15 colon, > 100 µM; in the assay with 786-0 renal, 25.1 µM; with SF-539 CNS, 31.9 µM; with CCRF-CEM leukemia it was 61.2 µM. In addition, in the assay on SK-MEL-28 melanoma, the GI50 was 74.3 µM. The TGI with UO-31 renal is > 100 µM; in the assay on PC-3 prostate, > 100 µM; in the assay on HCT-15 colon, > 100 µM; in the assay with 786-0 renal, 59.9 µM; with SF-539 CNS, > 100 µM; with CCRF-CEM leukemia, > 100 µM. The TGI in the assay with SK-MEL-28 melanoma is > 100 µM.

For the molecule `Cc1cc(Cl)ccc1NC(=O)CCCC(=O)C(C(=O)c1ccccc1)c1ccccc1` (centres undefined), the TGI with HCT-15 colon, with 786-0 renal, in the assay with CCRF-CEM leukemia and in the assay on SF-268 CNS was > 100 µM throughout.

For `O=C(O)Cc1cc(=O)[nH]c2c1C(=O)CCC2`, the TGI in the assay on UO-31 renal, in the assay with HCT-15 colon, in the assay with 786-0 renal, in the assay on CCRF-CEM leukemia, in the assay with SK-MEL-28 melanoma and in the assay with SF-268 CNS was > 100 µM throughout. The TGI with SR leukemia is > 100 µM.

With `CN(CCN(C)C(=O)CCn1ccc(=O)[nH]c1=O)C(=O)CCn1ccc(=O)[nH]c1=O`, the TGI in the assay with UO-31 renal, in the assay with HCT-15 colon, in the assay on 786-0 renal, with SF-539 CNS, with CCRF-CEM leukemia and in the assay with SK-MEL-28 melanoma was > 100 µM in each case. For the same molecule, the TGI in the assay with SF-268 CNS and in the assay on SR leukemia was > 100 µM throughout.

Consider `COc1cc(C(=O)C/C(CCC(=O)Nc2ccc(Cl)cc2Cl)=N/Nc2nnc(C)n2N)ccc1O`, for which the TGI with UO-31 renal, in the assay on HCT-15 colon, in the assay on 786-0 renal, in the assay with SF-539 CNS, in the assay with CCRF-CEM leukemia and in the assay with SK-MEL-28 melanoma was > 100 µM throughout. Further, the TGI in the assay with SF-268 CNS and in the assay on SR leukemia was > 100 µM each time.

Consider `O=c1cccccc1NCCNc1cccccc1=O`, for which the TGI in the assay on UO-31 renal, in the assay with HCT-15 colon, in the assay on 786-0 renal, in the assay with SF-539 CNS, in the assay with CCRF-CEM leukemia and in the assay on SF-268 CNS was > 100 µM throughout. For the same molecule, in the assay with SR leukemia, the TGI was > 100 µM.

In the case of `Cc1ccc(C)c2c1CCc1cc3ccccc3nc1-2`, the TGI with UO-31 renal, in the assay on HCT-15 colon, with 786-0 renal, in the assay on SF-539 CNS, in the assay on CCRF-CEM leukemia and with SK-MEL-28 melanoma was > 100 µM each time. In addition, the TGI in the assay with SF-268 CNS is > 100 µM.

For the molecule `CCCCN(CCCC)C(=O)C(=O)CC(=O)/C=C/c1ccccc1`, the TGI with UO-31 renal, in the assay on HCT-15 colon, in the assay on 786-0 renal, in the assay with SF-539 CNS, with CCRF-CEM leukemia and in the assay with SK-MEL-28 melanoma was > 100 µM throughout. Besides, the TGI with SF-268 CNS and with SR leukemia was > 100 µM throughout.

For the molecule `N[C@H](C(=O)O)[C@@H](Cl)CC(=O)O`, the TGI with UO-31 renal, with HCT-15 colon, in the assay on 786-0 renal, in the assay on SF-539 CNS, in the assay on CCRF-CEM leukemia and in the assay with SK-MEL-28 melanoma was > 100 µM throughout. Besides, the TGI in the assay with SF-268 CNS was > 100 µM.

On to `COc1cc(C2(C)SCCCS2)c(I)c(OC)c1OC`, for which the TGI in the assay on UO-31 renal, with HCT-15 colon, with 786-0 renal, with SF-539 CNS, in the assay on CCRF-CEM leukemia and with SK-MEL-28 melanoma was > 100 µM each time. In addition, the TGI in the assay with SF-268 CNS and in the assay with SR leukemia was > 100 µM throughout.

`CCCCCCCCCCCCCCC(O)C1CCC(C(O)CCC(O)CCCCCC(O)CC2=CC(C)OC2=O)O1` (centres undefined): the TGI came to 6.78 µM in the assay on UO-31 renal; 5.25 µM in the assay on HCT-15 colon; 8.87 µM in the assay on 786-0 renal; 17.8 µM in the assay on SF-539 CNS; 5.12 µM in the assay on CCRF-CEM leukemia; 10.1 µM in the assay with SK-MEL-28 melanoma. In addition, the TGI with SF-268 CNS was determined as 12.2 µM.

Regarding `COC(=O)/C(=N/O)C(C(=O)OC)C(=O)C(=O)Nc1c(Cl)cc(C)cc1S(=O)(=O)O` (centres undefined), the TGI in the assay with UO-31 renal, in the assay with HCT-15 colon, in the assay with 786-0 renal, in the assay on SF-539 CNS, with CCRF-CEM leukemia and in the assay on SK-MEL-28 melanoma was > 100 µM throughout. The values for the TGI in the assay on SF-268 CNS and in the assay on SR leukemia were > 100 µM and 42.8 µM, respectively.

Regarding `COc1cc2c3c(c1OC)Oc1ccc(cc1)CC1c4c(cc(OC)c(OC)c4Oc4ccc(cc4)CC3N(C)CC2)CCN1C` (centres undefined), the TGI with UO-31 renal was found to be 31.4 µM; in the assay with 786-0 renal, 53 µM; in the assay with SF-539 CNS, 28 µM; in the assay with CCRF-CEM leukemia, 55.1 µM; in the assay with SK-MEL-28 melanoma it was 34.2 µM; with SF-268 CNS, 64.5 µM. The molecule also gave a TGI with SR leukemia of 7.24 µM.

Regarding `O=C(Nc1ccccc1C(=O)O)C(=O)C(C(=O)c1ccccc1-c1ccccc1)C1OC(=O)c2ccccc21` (centres undefined), the TGI in the assay with UO-31 renal worked out at 32.5 µM; in the assay on HCT-15 colon it was 30.6 µM; in the assay with 786-0 renal, 33.3 µM; in the assay with SF-539 CNS it was 35.8 µM; in the assay on CCRF-CEM leukemia, 78.4 µM; in the assay on SK-MEL-28 melanoma it was 35.1 µM. Also, the results for the TGI in the assay on SF-268 CNS and in the assay with SR leukemia were 39.5 µM and 71.1 µM, respectively.

`COc1cccc2c1[C@]1(O)C(O)CCCC21` (some centres undefined): the TGI in the assay on UO-31 renal, in the assay with HCT-15 colon, in the assay with 786-0 renal, in the assay on SF-539 CNS, in the assay with CCRF-CEM leukemia and with SK-MEL-28 melanoma was > 100 µM in each case. Also, the TGI with SF-268 CNS is > 100 µM.

For the molecule `CCOC(=O)NC(=O)c1cn(C2OC(CO)C(O)C2O)c(=O)[nH]c1=O` (centres undefined), the TGI in the assay on UO-31 renal, with HCT-15 colon, in the assay on 786-0 renal, in the assay with SF-539 CNS, with SK-MEL-28 melanoma and with SF-268 CNS was > 100 µM each time. For the same molecule, the TGI in the assay with SR leukemia is > 100 µM.

On to `CC1=NN(C(=O)c2cc(Cl)cc([N+](=O)[O-])c2)C(=O)C1N=Nc1ccccc1C(=O)O` (centres undefined), for which the TGI in the assay with UO-31 renal, in the assay with 786-0 renal, in the assay with SF-539 CNS, with CCRF-CEM leukemia, in the assay with SK-MEL-28 melanoma and in the assay on SF-268 CNS was > 100 µM in each case. In addition, the TGI in the assay with SR leukemia was > 100 µM.

In the case of `CCC1(CC)C(=O)[N-]C(=O)[N-]C1=O.[Au+].[Au+].c1ccc([PH+](c2ccccc2)c2ccccc2)cc1.c1ccc([PH+](c2ccccc2)c2ccccc2)cc1`, the GI50 in the assay on UO-31 renal was 1.65 µM; in the assay with 786-0 renal, 0.911 µM; in the assay on SK-MEL-28 melanoma it was 0.988 µM. Besides, the results for the TGI in the assay with UO-31 renal, in the assay with 786-0 renal and in the assay on SK-MEL-28 melanoma were 3.04 µM, 2.14 µM and 2.34 µM, respectively.

`C/C=C/C(=O)[O-].N.N.N.N.N.[Co+3].[O-][Cl+3]([O-])([O-])[O-]`: the GI50 with UO-31 renal, in the assay on HCT-15 colon, with 786-0 renal, with SF-539 CNS, with CCRF-CEM leukemia and in the assay on SK-MEL-28 melanoma was > 100 µM each time. Besides, in the assay on SF-268 CNS, the GI50 was > 100 µM. Also, the TGI in the assay on UO-31 renal, in the assay on HCT-15 colon, in the assay on 786-0 renal, in the assay on SF-539 CNS, in the assay on CCRF-CEM leukemia and with SK-MEL-28 melanoma was > 100 µM in each case. Further, the TGI in the assay on SF-268 CNS is > 100 µM.

As for `O=C1C2=C(c3ccccc31)C(c1ccc(Cl)cc1)NC(=S)N2` (centres undefined), the TGI with UO-31 renal is 35 µM; with HCT-15 colon it was 35.9 µM; in the assay with 786-0 renal it was 34 µM; with SF-539 CNS, 29.6 µM; in the assay on CCRF-CEM leukemia, 54.6 µM; with SK-MEL-28 melanoma, 34.1 µM. The molecule also registered a TGI in the assay with SF-268 CNS of 40.1 µM.

For the molecule `[N-]=[N+]=Nc1c(Br)c(=O)[nH]c(=O)n1COCCO`, the TGI in the assay on UO-31 renal, with 786-0 renal, in the assay on SF-539 CNS, in the assay on CCRF-CEM leukemia, with SK-MEL-28 melanoma and in the assay with SF-268 CNS was > 100 µM throughout. Further, in the assay on SR leukemia, the TGI was > 100 µM.

As to `O=C1OC(c2ccccc2)=N/C1=C/N1CCCC1C(=O)O` (centres undefined), the TGI in the assay with UO-31 renal, with HCT-15 colon, with 786-0 renal, in the assay on SF-539 CNS, in the assay on CCRF-CEM leukemia and in the assay on SK-MEL-28 melanoma was > 100 µM each time. The TGI in the assay with SF-268 CNS was > 100 µM.

Take `c1ccc(COc2cccc3cccnc23)cc1`: the TGI in the assay with UO-31 renal was > 100 µM; in the assay on 786-0 renal, > 100 µM; in the assay with SF-539 CNS, > 100 µM; with CCRF-CEM leukemia, > 100 µM; in the assay with SK-MEL-28 melanoma, > 100 µM; in the assay on SF-268 CNS, 88.4 µM.
